Measurements from PMC8178808, “Exploring conformational preferences of proteins: ionic liquid effects on the energy landscape of avidin” (Chemical Science, 2020).

Molecular target: T1, avidin (unmodified, native) (Gallus gallus, UniProt P02701)
T1 construct: gene AVD; natural secreted glycoprotein from egg white (mature chain, signal peptide removed), commercial lyophilised (Merck), untagged; homotetramer, one ligand site per monomer
Assay: UV-Vis titration at […] nm, non-linear regression (Hill-Langmuir)
Assay type: binding
Details: read-out: Unmodified avidin / K d (×10^-5 mol dm^-3)

T1 sequence (P02701 25-152): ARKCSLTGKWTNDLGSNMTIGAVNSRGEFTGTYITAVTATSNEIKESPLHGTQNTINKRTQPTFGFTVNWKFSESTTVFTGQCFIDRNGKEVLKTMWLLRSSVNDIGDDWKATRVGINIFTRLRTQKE

With `O=C(O)c1ccccc1N=Nc1ccc(O)cc1` [HABA] the Kd was 11 µM.
